Measured values: PubChem BioAssay (NCI)
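Test compounds were applied to cells in 96-well plates for 48 hours at 5 doses. Here, GI50 denotes the concentration required for 50% inhibition of growth. TGI: concentration producing complete growth inhibition.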

Experiments:
Assay in all cases: NCI-60 cell line screen, 48 h
[1] = tested on: UACC-257 melanoma
[2] = tested on: HS 578T breast
[3] = tested on: SK-MEL-2 melanoma
[4] = tested on: SK-MEL-28 melanoma
[5] = tested on: SF-539 CNS
[6] = tested on: NCI/ADR-RES ovarian
[7] = tested on: NCI-H226 lung
[8] = tested on: SN12C renal
[9] = tested on: CAKI-1 renal
[10] = tested on: LOX IMVI melanoma
[11] = tested on: 786-0 renal
[12] = tested on: SNB-19 CNS
[13] = tested on: EKVX NSCLC
[14] = tested on: HCT-15 colon
[15] = tested on: HCT-116 colon
[16] = tested on: SF-295 CNS
[17] = tested on: NCI-H522 lung
[18] = tested on: SR leukemia
[19] = tested on: M14 melanoma
[20] = tested on: ACHN renal
[21] = tested on: MDA-MB-231 breast
[22] = tested on: SNB-75 CNS
[23] = tested on: UO-31 renal
[24] = tested on: HOP-92 NSCLC
[25] = tested on: HOP-62 NSCLC
[26] = tested on: RXF 393 renal
[27] = tested on: UACC-62 melanoma
[28] = tested on: CCRF-CEM leukemia
[29] = tested on: MCF7 breast
[30] = tested on: OVCAR-3 ovarian
[31] = tested on: RPMI-8226 leukemia
[32] = tested on: OVCAR-5 ovarian
[33] = tested on: TK-10 renal
[34] = tested on: MDA-MB-435
[35] = tested on: MALME-3M melanoma
[36] = tested on: SK-OV-3 ovarian
[37] = tested on: HL-60(TB) leukemia
[38] = tested on: COLO 205 colon
[39] = tested on: KM12 colon
[40] = tested on: T-47D breast
[41] = tested on: IGROV1 ovarian
[42] = tested on: SF-268 CNS
[43] = tested on: HCC-2998 colon
[44] = tested on: HT29 colon
[45] = tested on: MOLT-4 leukemia
[46] = tested on: NCI-H460 lung
[47] = tested on: PC-3 prostate
[48] = tested on: U251 CNS
[49] = tested on: SW-620 colon
[50] = tested on: A498 renal
[51] = tested on: A549 NSCLC
[52] = tested on: DU-145 prostate
[53] = tested on: K-562 leukemia
[54] = tested on: OVCAR-4 ovarian
[55] = tested on: BT-549 breast
[56] = tested on: OVCAR-8 ovarian
[57] = tested on: SK-MEL-5 melanoma

With `NC(=O)c1cc(-c2ccc3ncnc(N4CCc5cc(F)c(Cl)cc54)c3c2)cnc1N` the GI50 [1] was 2.83 µM, the TGI [1] was greater than 100 µM and the GI50 [2] was 0.839 µM. The TGI [2] was 7.65 µM, the GI50 [3] was 1.54 µM and the TGI [3] was 4.02 µM. The GI50 [4] was 2.67 µM, the TGI [4] was 28.5 µM and the GI50 [5] was 1.49 µM. The TGI [5] was 3.56 µM, the GI50 [6] was 3.22 µM and the TGI [6] was greater than 100 µM. For the same compound, the GI50 [7] was 3.04 µM, the TGI [7] was 33.1 µM and the GI50 [8] was 1.03 µM. It also gave a TGI [8] of 25 µM, a GI50 [9] of 0.529 µM and a TGI [9] of 17 µM. The GI50 [10] was 1.69 µM, the TGI [10] was 12.3 µM and the GI50 [11] was 1.19 µM. It also gave a TGI [11] of 10.4 µM, a GI50 [12] of 1.82 µM and a TGI [12] greater than 100 µM. For the same compound, the GI50 [13] was 0.806 µM, the TGI [13] was 15.3 µM and the GI50 [14] was 2.02 µM. For the same compound, the TGI [14] was greater than 100 µM, the GI50 [15] was 1.22 µM and the TGI [15] was 2.81 µM. For the same compound, the GI50 [16] was 1.47 µM, the TGI [16] was 4.26 µM and the GI50 [17] was 1.55 µM. The TGI [17] was 4.72 µM, the GI50 [18] was 1.87 µM and the TGI [18] was 16.2 µM. The GI50 [19] was 2.84 µM, the TGI [19] was 41.4 µM and the GI50 [20] was 0.801 µM. The TGI [20] was 17 µM, the GI50 [21] was 2.02 µM and the TGI [21] was 16.2 µM. It also gave a GI50 [22] of 0.524 µM, a TGI [22] of 5.8 µM and a GI50 [23] of 0.311 µM. For the same compound, the TGI [23] was 10.6 µM, the GI50 [24] was 0.231 µM and the TGI [24] was 2.63 µM. It also gave a GI50 [25] of 1.37 µM, a TGI [25] of 7.22 µM and a GI50 [26] of 0.656 µM. For the same compound, the TGI [26] was 2.59 µM, the GI50 [27] was 1.62 µM and the TGI [27] was 18.3 µM. It also gave a GI50 [28] of 2.95 µM, a TGI [28] of 34.8 µM and a GI50 [29] of 0.317 µM. The TGI [29] was 2.15 µM, the GI50 [30] was 1.67 µM and the TGI [30] was 10 µM. It also gave a GI50 [31] of 1.39 µM, a TGI [31] of 11.3 µM and a GI50 [32] of 1.82 µM. It also gave a TGI [32] of 47.9 µM, a GI50 [33] of 0.519 µM and a TGI [33] of 27.9 µM. The GI50 [34] was 2.3 µM, the TGI [34] was greater than 100 µM and the GI50 [35] was 1.51 µM. The TGI [35] was 15.2 µM, the GI50 [36] was 1.09 µM and the TGI [36] was 4.18 µM. The GI50 [37] was 0.573 µM, the TGI [37] was 6.18 µM and the GI50 [38] was 2.7 µM. For the same compound, the TGI [38] was 21.4 µM, the GI50 [39] was 2.33 µM and the TGI [39] was 10.9 µM. The GI50 [40] was 0.273 µM, the TGI [40] was 2.36 µM and the GI50 [41] was 0.279 µM. The TGI [41] was 1.62 µM, the GI50 [42] was 1.88 µM and the TGI [42] was 49.8 µM. The GI50 [43] was 1.68 µM, the TGI [43] was 7.09 µM and the GI50 [44] was 1.14 µM. For the same compound, the TGI [44] was 9.76 µM, the GI50 [45] was 1.25 µM and the TGI [45] was 6.23 µM. The GI50 [46] was 1.3 µM, the TGI [46] was 3.96 µM and the GI50 [47] was 0.976 µM. For the same compound, the TGI [47] was 5.27 µM, the GI50 [48] was 2.44 µM and the TGI [48] was 18.8 µM. For the same compound, the GI50 [49] was 2.41 µM, the TGI [49] was 19.4 µM and the GI50 [50] was 0.336 µM. It also gave a TGI [50] of 2.46 µM, a GI50 [51] of 1.05 µM and a TGI [51] of 13.4 µM. It also gave a GI50 [52] of 1.79 µM, a TGI [52] of 27.4 µM and a GI50 [53] of 3.35 µM. The TGI [53] was greater than 100 µM, the GI50 [54] was 1.28 µM and the TGI [54] was 2.95 µM.

`CN(C)CCCNc1c2ccccc2nc2c1oc1ccc(Cl)cc12` showed a GI50 [1] of 4.65 µM, a TGI [1] of 17.2 µM and a GI50 [2] of 4.65 µM. It also gave a TGI [2] of 21.3 µM, a GI50 [3] of 4.2 µM and a TGI [3] of 16.4 µM. The GI50 [4] was 4.48 µM, the TGI [4] was 16.2 µM and the GI50 [5] was 3.31 µM. It also gave a TGI [5] of 12.7 µM, a GI50 [6] of 1.52 µM and a TGI [6] of 10.8 µM. It also gave a GI50 [7] of 4.18 µM, a TGI [7] of 18.2 µM and a GI50 [8] of 2.58 µM. The TGI [8] was 13.1 µM, the GI50 [9] was 2.32 µM and the TGI [9] was 13.3 µM. For the same compound, the GI50 [10] was 1.64 µM, the TGI [10] was 3.33 µM and the GI50 [11] was 3.22 µM. For the same compound, the TGI [11] was 14.4 µM, the GI50 [12] was 4.95 µM and the TGI [12] was 18.4 µM. For the same compound, the GI50 [13] was 5.22 µM, the TGI [13] was 18.6 µM and the GI50 [14] was 1.45 µM. It also gave a TGI [14] of 6.5 µM, a GI50 [15] of 0.949 µM and a TGI [15] of 2.32 µM. It also gave a GI50 [16] of 4.6 µM, a TGI [16] of 17.3 µM and a GI50 [17] of 3.73 µM. For the same compound, the TGI [17] was 16.6 µM, the GI50 [18] was 2.19 µM and the TGI [18] was 10.1 µM. The GI50 [19] was 1.75 µM, the TGI [19] was 4.2 µM and the GI50 [20] was 1.76 µM. For the same compound, the TGI [20] was 15.6 µM, the GI50 [21] was 2 µM and the TGI [21] was 5.69 µM. The GI50 [22] was 3.67 µM, the TGI [22] was 17.4 µM and the GI50 [23] was 3.15 µM. The TGI [23] was 15.1 µM, the GI50 [24] was 1.37 µM and the TGI [24] was 6.59 µM. The GI50 [25] was 4.08 µM, the TGI [25] was 17 µM and the GI50 [26] was 1.95 µM. The TGI [26] was 6.74 µM, the GI50 [27] was 10.9 µM and the TGI [27] was 24.5 µM. For the same compound, the GI50 [28] was 2.21 µM, the TGI [28] was 12.6 µM and the GI50 [29] was 1.23 µM. For the same compound, the TGI [29] was 4.59 µM, the GI50 [30] was 6.44 µM and the TGI [30] was 20.2 µM. The GI50 [31] was 2.66 µM, the GI50 [32] was 5.24 µM and the TGI [32] was 18.8 µM. For the same compound, the GI50 [33] was 7.35 µM, the TGI [33] was 20.1 µM and the GI50 [34] was 3.91 µM. The TGI [34] was 16.1 µM, the GI50 [35] was 4.5 µM and the TGI [35] was 17.1 µM. It also gave a GI50 [36] of 4.53 µM, a TGI [36] of 17.3 µM and a GI50 [37] of 2.71 µM. The TGI [37] was 10.1 µM, the GI50 [38] was 1.94 µM and the TGI [38] was 9.57 µM. The GI50 [39] was 2.75 µM, the TGI [39] was 14.9 µM and the GI50 [40] was 6.18 µM. The TGI [40] was 19.9 µM, the GI50 [41] was 3.68 µM and the TGI [41] was 16.2 µM. For the same compound, the GI50 [55] was 3.76 µM, the TGI [55] was 14.3 µM and the GI50 [42] was 3.06 µM. For the same compound, the TGI [42] was 16.5 µM, the GI50 [43] was 1.43 µM and the TGI [43] was 3.73 µM. It also gave a GI50 [44] of 1.03 µM, a TGI [44] of 2.94 µM and a GI50 [56] of 3.75 µM. It also gave a TGI [56] of 20.2 µM, a GI50 [45] of 0.521 µM and a TGI [45] of 18.9 µM. For the same compound, the GI50 [46] was 1.05 µM, the TGI [46] was 4.79 µM and the GI50 [57] was 12.5 µM. The TGI [57] was 25 µM, the GI50 [47] was 3.92 µM and the TGI [47] was 15.8 µM. It also gave a GI50 [48] of 3.69 µM, a TGI [48] of 16.4 µM and a GI50 [49] of 0.777 µM. The TGI [49] was 8.63 µM, the GI50 [50] was 9.15 µM and the TGI [50] was 22.9 µM. The GI50 [51] was 3.43 µM, the TGI [51] was 15.3 µM and the GI50 [52] was 4.1 µM. It also gave a TGI [52] of 16.6 µM, a GI50 [53] of 1.25 µM and a TGI [53] of 11.3 µM. For the same compound, the GI50 [54] was 2.83 µM and the TGI [54] was 14 µM.
